According to patent US20130109572A1, “HERBICIDAL COMPOSITIONS AND METHODS OF USE” (The Board of Trustees of the University of Alabama, priority 2010, published 2013):

Assays:
rat = conditions: cited from earlier work
[1] = system: white mustard (Sinapis alba L.); test: Growth chamber spray test, fresh mass of white mustard (Mecoprop ionic liquids); assay type: in vivo; conditions: 0.001 M spray in water/ethanol (1:2), 200 L/ha, 2 weeks after application; for Reduction of fresh mass (%): vs unsprayed control
Description: The research was conducted under controlled environmental conditions in a dedicated growth chamber. The test plant was white mustard (Sinapis alba L.). Seeds were sown into soil-filled containers equal to the depth of 1 cm. After producing first leave, only 5 plants were allowed to stay in each pot. After producing the 3rd leaf, the plants were sprayed with the ionic liquids studied using a Tee Jet 1102 sprayer, the sprayer moving above the plants at a constant speed of 3.1 m/s. The spray distance from the tips of the plant was 40 cm, the pressure of liquid in sprayer was 0.2 MPa, and a liquid in the expenditure per 1 ha was 200 L.
Examples of the ionic liquids described herein were dissolved in a solution of water and ethanol (1:2) in an amount corresponding to a concentration of 0.001 mol/L, or 0.533 g/L [DDA][MCPP-P], 0.520 g/L [BA][MCPP-P], and 0.546 g/L [DOM] [MCPP-P]. As a comparison, a commercial product containing 600 g of the herbicide Mecoprop-P in 1 L was used. After spraying the plants, the pots were placed back in a growth chamber at a temperature of 20° C. (±2° C.) and humidity of 50%. The illumination time was 16 hours per day.
After a period of 2 weeks, the plants were cut to the soil level and weighed (0.1 g accuracy). A study was carried out in 4 replications in a completely randomized setup. The reduction of plant fresh weight as compared to control (no sprayed plants) was measured.

[2] = system: common poppy (Papaver rhoeas); test: Growth chamber spray test, fresh weight reduction (Glyphosate ionic liquids); assay type: in vivo; conditions: 0.01 mol/L in water; 2 WAT
Description: Experiment in growth chamber: Temperature—20° C., humidity—60%, photoperiod (day/night hours)—16/8. The research was conducted under controlled environmental conditions in a dedicated growth chamber. The test plant was common poppy (Papaver rhoeas). The seeds were sown into soil-filled containers equal to the depth of 0.1 cm. After producing leaves, only 1 plant was allowed to stay in each pot. After producing the rosette, the plants were sprayed with the ionic liquids using a sprayer with Tee Jet 1102 nozzles. The sprayer was moving above the plants at a constant speed of 3.1 m/s. The spray distance from the tips of the plant was 40 cm, the pressure of liquid in sprayer was 0.2 MPa, and the liquid in the expenditure per 1 ha was 200 L.
The ionic liquids were dissolved in water in an amount corresponding to a concentration of 0.01 mol/L or 4.94 g/L [DDA][Glyphosate], 4.88 g/L [BA][Glyphosate]. As a comparison, a commercial product ROUNDUP™ containing 360 g of Glyphosate in 1 L was used. After spraying the plants, the pots were placed back in a growth chamber at a temperature of 20° C. (±2° C.) and humidity of 60%. The illumination time was 16 hours per day.
After a period of 2 weeks, the plants were cut right to the soil level and weighed (0.1 g accuracy). Fresh weight was used as the effect parameter. […]

[3] = system: common lambsquarters (Chenopodium album); test: Field test, visual effectiveness of weed eradication; assay type: in vivo; conditions: field plots, 4 WAT, mean estimate, solutions of 0.01 and 0.02 mol/dm^3, 100% = complete destruction
Description: (§1) Field test. The research was conducted in the Field Experimental Station of the Institute of Plant Protection in Winna Gora on the plots of dimensions 1.5 m×5 m. The test plants were common lambsquarters (Chenopodium album) and cornflower (Centaurea cyanus). The investigated ion pairs were alkyltrimethylammonium 3,6-dichloro-2-methoxybenzoate ([ATMA][Dicamba]) and didecyldimethylammonium 3,6-dichloro-2-methoxybenzoate ([DDA][Dicamba]).
(§2) Solutions of investigated ion pairs were prepared as follows: alkyltrimethylammonium 3,6-dichloro-2-methoxybenzoate [ATMA][Dicamba] and didecyldimethylammonium 3,6-dichloro-2-methoxybenzoate [DDA][Dicamba] were dissolved in a mixture of water and ethanol (1:1) in an amount corresponding to a concentration of 0.01 and 0.02 mol/dm^3. […] As controls, objects with no treatment were used and sprayed only with a solution of water and ethanol (1:1).
(§3) The procedures were performed using a sprayer equipped with a flat stream nozzles type Tee Jet 110 03 XR, with a steady pressure of 0.2 MPa and the expense of the liquid in use in 200 L per 1 hectare. During the procedure, the following weeds were at following developmental phases: common lambsquarters—from 4 to 10 leaves; and cornflower—a fully-formed rosette.
(§4) The effectiveness of weed eradication was evaluated visually by comparing the state of weeds on each plot treated with [DDA][Dicamba] and control solution.

[4] = system: cornflower (Centaurea cyanus); test: as above; assay type: in vivo; conditions: field plots, 4 WAT, mean estimate, solutions of 0.01 and 0.02 mol/dm^3, 100% = complete destruction
Description: as §1, §2, §3, §4

[5] = system: white mustard (Sinapis alba); test: Growth chamber spray test, fresh weight reduction (Dicamba ionic liquid); assay type: in vivo; conditions: for Fresh weight reduction (%) Sinapis alba: 2 WAT
[6] = system: common lambsquarters (Chenopodium album); test: as above; assay type: in vivo; conditions: 2 WAT
[7] = 0.001 mole/L in water/DMSO (2:1)
[8] = 0.002 mole/L in water/DMSO (2:1)
[9] = 0.004 mole/L in water/DMSO (2:1)

## O=C(O)COc1ccc(Cl)cc1Cl [Example 2.4-D, 2,4-dichlorophenoxyacetic acid]
rat
  rat LD50: 639 to 764 mg/kg

## Cc1cc(Cl)ccc1OCC(=O)O [MCPA, 4-chloro-2-methylphenoxyacetic acid]
rat
  rat LD50: 962 to 1470 mg/kg

## Benzalkonium (±)-2-(4-chloro-2-methylphenoxy)propionate [[BA][MCPP]]
[1]
  Fresh mass of white mustard: 5.13 g
  Reduction of fresh mass (%): 57.8%

## Benzalkonium Glyphosate [[BA][Glyphosate]]
[2]
  Fresh weight reduction of Papaver rhoeas (%): 84.0%

## Didecyldimethylammonium 3,6-dichloro-2-methoxybenzoate [[DDA][Dicamba]]
[3]
  Effectiveness of Weed Eradication (%) Chenopodium album: 92%
[4]
  Effectiveness of Weed Eradication (%) Centaurea cyanus: 95%
[5]; [7]
  Fresh weight reduction (%) Sinapis alba: 6.8%
[5]; [8]
  Fresh weight reduction (%) Sinapis alba: 18.5%
[5]; [9]
  Fresh weight reduction (%) Sinapis alba: 27.1%
[5]; growth chamber, preliminary comparison
  Effect on the weight of Sinapis alba compared with neutral Dicamba: substantially more active than neutral Dicamba
[6]; [7]
  Fresh weight reduction (%) Chenopodium album: 16.7%
[6]; [8]
  Fresh weight reduction (%) Chenopodium album: 41.7%
[6]; [9]
  Fresh weight reduction (%) Chenopodium album: 45.7%

## Didecyldimethylammonium (+)-(R)-2-(4-chloro-2-methylphenoxy)propionate [[DDA][MCPP-P]]
[1]
  Fresh mass of white mustard: 4.78 g
  Reduction of fresh mass (%): 60.7%

## Didecyldimethylammonium Glyphosate [[DDA][Glyphosate]]
[2]
  Fresh weight reduction of Papaver rhoeas (%): 78.3%

## Domiphen (+)-(R)-2-(4-chloro-2-methylphenoxy)propionate [[DOM][MCPP-P]]
[1]
  Fresh mass of white mustard: 4.08 g
  Reduction of fresh mass (%): 66.5%
